For the test, the target named is Transitional endoplasmic reticulum ATPase (Homo sapiens) (UniProt P55072). In words: Inhibition of p97 (unknown origin) expressed in Escherichia coli BL21 (DE3) preincubated for 10 mins followed by ATP addition measured for 30 to 120 mins by malachite green based assay.

Data on 1 compound can be found in BindingDB's records for PubMed 33873056 (California Institute of Technology, 2021).

Chain of Transitional endoplasmic reticulum ATPase (Homo sapiens) (P55072 whole entry, looked up): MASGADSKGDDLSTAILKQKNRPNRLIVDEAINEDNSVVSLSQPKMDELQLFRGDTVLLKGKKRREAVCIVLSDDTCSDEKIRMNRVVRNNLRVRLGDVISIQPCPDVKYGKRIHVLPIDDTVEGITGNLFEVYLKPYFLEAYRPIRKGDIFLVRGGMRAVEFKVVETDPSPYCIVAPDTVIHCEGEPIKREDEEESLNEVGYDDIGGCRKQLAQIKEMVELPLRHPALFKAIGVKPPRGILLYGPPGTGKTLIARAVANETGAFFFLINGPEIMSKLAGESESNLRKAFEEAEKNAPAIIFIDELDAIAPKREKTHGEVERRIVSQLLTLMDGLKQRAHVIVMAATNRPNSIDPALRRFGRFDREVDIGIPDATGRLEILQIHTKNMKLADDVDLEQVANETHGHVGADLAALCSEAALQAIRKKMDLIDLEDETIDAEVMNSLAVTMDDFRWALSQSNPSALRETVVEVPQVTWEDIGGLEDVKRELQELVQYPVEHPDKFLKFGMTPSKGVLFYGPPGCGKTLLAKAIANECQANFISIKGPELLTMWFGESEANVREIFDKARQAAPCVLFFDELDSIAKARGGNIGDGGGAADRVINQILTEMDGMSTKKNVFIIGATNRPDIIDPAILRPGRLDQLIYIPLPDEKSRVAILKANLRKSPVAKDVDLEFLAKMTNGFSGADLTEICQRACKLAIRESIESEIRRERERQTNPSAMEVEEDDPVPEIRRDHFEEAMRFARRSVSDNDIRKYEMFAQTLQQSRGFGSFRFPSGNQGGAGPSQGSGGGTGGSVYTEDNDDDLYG

Take `C[C@H]1CCC/C=C/C(=O)c2c(O)cc(O)cc2CC(=O)O1` [DEHYDROCURVULARIN]: the IC50 (in general, the concentration at which inhibition is half-maximal) is 15.3 µM.
